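48-hour exposure; five concentrations; linearly interpolated endpoints. The concentration for full growth arrest is given as TGI.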
How the values were obtained:
Experiment in all cases: NCI-60 cell line screen, 48 h
[1] = test system: HCT-116 colon
[2] = test system: HOP-62 NSCLC
[3] = test system: HT29 colon
[4] = test system: IGROV1 ovarian
[5] = test system: NCI-H460 lung
[6] = test system: OVCAR-4 ovarian
[7] = test system: SF-268 CNS
[8] = test system: SK-MEL-2 melanoma
[9] = test system: SW-620 colon
[10] = test system: UACC-62 melanoma

SMILES | TGI [1] | TGI [2] | TGI [3] | TGI [4] | TGI [5] | TGI [6] | TGI [7] | TGI [8] | TGI [9] | TGI [10]
COP(=O)(O)/C=C/C(NC(=O)C(Cl)(Cl)Cl)c1ccccc1 (centres undefined) | > 100 µM | > 100 µM | > 100 µM | > 100 µM | > 100 µM | > 100 µM | > 100 µM | > 100 µM | > 100 µM | > 100 µM
C/C(=N/NC(N)=S)c1ccc2ccccc2c1 | 78.4 µM | > 100 µM | 72.4 µM | > 100 µM | 78.1 µM | > 100 µM | > 100 µM | 51.1 µM | > 100 µM | 28.6 µM
O=C(O)C1CC(c2ccc(F)cc2)=Nc2ccc(F)cc2S1 (centres undefined) | > 100 µM |  | > 100 µM | > 100 µM | > 100 µM | > 100 µM | > 100 µM | > 100 µM | > 100 µM | > 100 µM
COc1cc(/C=C/C(=O)O)ccc1C(=O)O/C=C/c1ccccc1 | > 100 µM | > 100 µM | > 100 µM | > 100 µM | > 100 µM | > 100 µM | > 100 µM | > 100 µM | > 100 µM | > 100 µM
CCN(CC)CCNc1ccc2nnn3c4ccc(OC)cc4c(=O)c1c23 | 14.5 µM | 23.8 µM | 15.9 µM | 22.9 µM | 13.3 µM | 19.9 µM | 20.6 µM | 27.4 µM | 17.1 µM | 25.7 µM
CSC1CC2C(CC1(C)O)C2(C)C (centres undefined) | > 100 µM | > 100 µM | > 100 µM | > 100 µM | > 100 µM | > 100 µM | > 100 µM | > 100 µM | > 100 µM | > 100 µM
CC(=O)NS(=O)(=O)c1ccc(NC(=O)c2c3ccccc3nc3ccccc23)cc1 | > 100 µM | > 100 µM | > 100 µM | > 100 µM | > 100 µM | > 100 µM | > 100 µM | > 100 µM | > 100 µM | > 100 µM
Cc1cc(C)c2c(=O)n(CN3CC4Nc5ccccc5C4C3)sc2n1 (centres undefined) | 43.7 µM | > 100 µM | 46.1 µM | > 100 µM | 46.2 µM | 42.2 µM | 54.1 µM | 54.2 µM | 63.7 µM | 71.4 µM
CCCCn1c2c(n(CCCC)c1=S)-c1c(n(CCCC)c(=S)n1CCCC)S[Se][Se]S2 | 16.9 µM | 35.1 µM | 32.5 µM | 9.16 µM | > 80 µM | > 37.4 µM | > 83.4 µM | > 55.6 µM | 6.64 µM | 22.3 µM
CC(C)=C[C@@H]1C[C@H](n2cc(C)c(=O)[nH]c2=O)ON1CCO | > 100 µM | > 100 µM | > 100 µM | > 100 µM | > 100 µM | > 100 µM | > 100 µM | > 100 µM | > 100 µM | > 100 µM
